Source: patent US20250304568A1, “PYRIMIDINES FOR DEGRADING BRUTON'S TYROSINE KINASE” (AbbVie Inc., priority 2022, published 2025)
pIC50: −log10 of the molar value.

How the values were obtained:
[1] = tested on: TCL1-driven CLL bearing BTK^C481S mutation; assay: TCL1-driven CLL bearing BTK^C481S mutation in C57BL/6 mice, circulating leukemia burden; format: in vivo
Excerpt: Eμ-TCL1 CLL transgenic mice (Crogen Pharmaceuticals LLC) were crossed with […] knock-in mice (AbbVie) to generate Eμ-TCL1 transgenic mice carrying the […] mutation. The leukemic splenocytes from these BTK^C481S Eμ-TCL1 transgenic mice (Passage 1) were transplanted intravenously into C57BL/6 mice, leading to CLL development in the peripheral blood and spleen. When circulating CLL burden (CD5+CD19+ cells as described below) in the recipient mice reached over 90%, their splenocytes (Passage 2) containing high CLL burden were cryopreserved and used for CLL efficacy studies. […]
To determine the absolute/total leukocyte numbers, complete blood counts were determined for each mouse using the Genesis™ veterinary hematology analyzer (Oxford Science Inc.).
Cells isolated from murine peripheral blood mononuclear cells (PMBCs) were collected to determine antigen expression. […] Cells were gated on CD45+, and thereafter the percentage of cells that were CD5+CD19+ from that subset was calculated. […]
Whole blood was collected weekly post tumor implantation via submandibular cheek bleeding. Circulating leukemic burden was calculated by multiplying absolute/total leukocyte count with the percentage of the leukocytes have the immunophenotype CD19^+CD5^+. […]

[2] = target: His-tagged Cereblon/DDB1 complex (Homo sapiens (Human), UniProt Q96SW2); assay: Cereblon binding assay (AlphaLISA Human Cereblon Binding Kit, competition); settings: 10 μM top dose, biotinylated ligand competition; read-out: CRBN IC50
Protocol: Cereblon binding was measured in vitro using an AlphaLISA® Human Cereblon Binding Kit (PerkinElmer, Waltham, MA) according to the manufacturer's protocol (“Alpha” refers to Amplified Luminescent Proximity Homogeneous Assay). In this assay, donor beads and acceptor beads come into proximity through ligand binding to CRBN protein. Excitation of the donor beads provokes the release of singlet oxygen that triggers a cascade of energy transfer reactions to the acceptor beads, resulting in a sharp peak in light emission at 615 nm.
Specifically, nickel chelate acceptor beads (PerkinElmer AL108M) were used to capture a 6×HIS-tagged CRBN protein, and streptavidin-coated donor beads (PerkinElmer 6760002) were used to capture 50 nM biotinylated ligand. […]
Detection: 10 μL detection reagents were added in low light conditions containing nickel chelate acceptor beads and streptavidin donor beads (Perkin Elmer 6760002), resulting in a final concentration 20 μg/ml. Plates were incubated 1 hour and read on a PerkinElmer™ Envision™ plate reader (680 nm excitation and […] emission settings). The IC50 of each compound was determined by calculating percent inhibition from no drug and no protein controls, and the Ki of each compound was calculated using the Cheng-Prusoff transformation. From the Ki, the ICs50 values were determined. […]

[3] = target: Human BTK enzyme, wild-type (Homo sapiens (Human), UniProt Q06187); assay: BTK screening: Btk kinase activity, electrophoretic mobility shift assay (MSA); format: biochemical; settings: 50 μM ATP, 0.5 nM BTK enzyme, 15 minutes pre-incubation
Protocol: Btk kinase activity was measured in vitro using an electrophoretic mobility shift assay (MSA). The ability of Btk to phosphorylate a fluorescent peptide substrate (FAM-GEEPLYWSFPAKKK-NH2) was measured. The kinase reactions were assembled in a total volume of 25 μL per well in 384 well plates. The following was added to each well: compound buffer (or control); enzyme buffer; and substrate buffer, as further described below. […]
The terminated reactions were analyzed using a 12 channel LABCHIP® 3000 microfluidic detection instrument (available from Caliper Life Sciences, Waltham, MA). […] As substrate and product peptides were separated, two peaks of fluorescence were observed. Change in the relative fluorescence intensity of the substrate and product peaks was the parameter measured, reflecting enzyme activity. […] Capillary electrophoregrams (RDA acquisition files) were analyzed using HTS Well Analyzer software (available from Caliper Life Sciences, Waltham, MA).
Activity in each sample was determined as the product to sum ratio (PSR): P/(S+P), where P was the peak height of the product peptide and S was the peak height of the substrate peptide. For each compound, enzyme activity was measured at various concentrations (12 concentrations of compound spaced by 3× dilution intervals). […]

| pIC50 [2] | pIC50 [3] | Structure (SMILES) | CLL burden control (no increase from the initial tumor burden) ([1]; Dosage 3 and Dosage 4, once daily (QD) for 19 days) | circulating leukemia burden (CD19+CD5+ CLL cells per μL) ([1]; once daily (QD) for 19 days, Dosage 1 to 4, dose-dependent manner, FIG. 1) |
| --- | --- | --- | --- | --- |
| – | – | Cc1cc(-c2cc(Nc3ccc(N4CCN(CCc5ccc(N6CCC(=O)NC6=O)cc5)C[C@@H]4C)cn3)ncn2)ccc1[C@@H](C)NC(=O)c1nc(C(C)(C)C)no1 [Example 1, 3-tert-butyl-N-[(1R)-1-{4-[6-({5-[(2S)-4-{2-[4-(2,4-dioxo-1,3-diazinan-1-yl)phenyl]ethyl}-2-methylpiperazin-1-yl]pyridin-2-yl}amino)pyrimidin-4-yl]-2-methylphenyl}ethyl]-1,2,4-oxadiazole-5-carboxamide] | Complete CLL burden control | controlled circulating leukemia burden |
| 5.20 | 9.97 | Cc1c([C@@H](C)NC(=O)c2nc(C(C)(C)C)no2)ccc(-c2cc(Nc3ccc(N4CCN(CCc5ccc(N6CCC(=O)NC6=O)cc5)C[C@@H]4C)cn3)ncn2)c1F [Example 10, 3-tert-butyl-N-[(1R)-1-{4-[6-({5-[(2S)-4-{2-[4-(2,4-dioxo-1,3-diazinan-1-yl)phenyl]ethyl}-2-methylpiperazin-1-yl]pyridin-2-yl}amino)pyrimidin-4-yl]-3-fluoro-2-methylphenyl}ethyl]-1,2,4-oxadiazole-5-carboxamide] | – | – |
| 5.67 | 10.01 | Cc1c([C@@H](C)NC(=O)c2nc(C(C)(C)C)no2)ccc(-c2cc(Nc3ccc(N4CCN(CCc5ccc(N6CCC(=O)NC6=O)cc5)CC4)cn3)ncn2)c1F [Example 11, 3-tert-butyl-N-{(1R)-1-[4-(6-{[5-(4-{2-[4-(2,4-dioxo-1,3-diazinan-1-yl)phenyl]ethyl}piperazin-1-yl)pyridin-2-yl]amino}pyrimidin-4-yl)-3-fluoro-2-methylphenyl]ethyl}-1,2,4-oxadiazole-5-carboxamide] | – | – |
